The results in this text go back to patent publication US9725448B2, “Neprilysin inhibitors” (THERAVANCE BIOPHARMA R&D IP, LLC, priority 2011, dated 2017).

SMILES strings stand for the structures.

T1 sequence (P08473 52-750 limits assumed): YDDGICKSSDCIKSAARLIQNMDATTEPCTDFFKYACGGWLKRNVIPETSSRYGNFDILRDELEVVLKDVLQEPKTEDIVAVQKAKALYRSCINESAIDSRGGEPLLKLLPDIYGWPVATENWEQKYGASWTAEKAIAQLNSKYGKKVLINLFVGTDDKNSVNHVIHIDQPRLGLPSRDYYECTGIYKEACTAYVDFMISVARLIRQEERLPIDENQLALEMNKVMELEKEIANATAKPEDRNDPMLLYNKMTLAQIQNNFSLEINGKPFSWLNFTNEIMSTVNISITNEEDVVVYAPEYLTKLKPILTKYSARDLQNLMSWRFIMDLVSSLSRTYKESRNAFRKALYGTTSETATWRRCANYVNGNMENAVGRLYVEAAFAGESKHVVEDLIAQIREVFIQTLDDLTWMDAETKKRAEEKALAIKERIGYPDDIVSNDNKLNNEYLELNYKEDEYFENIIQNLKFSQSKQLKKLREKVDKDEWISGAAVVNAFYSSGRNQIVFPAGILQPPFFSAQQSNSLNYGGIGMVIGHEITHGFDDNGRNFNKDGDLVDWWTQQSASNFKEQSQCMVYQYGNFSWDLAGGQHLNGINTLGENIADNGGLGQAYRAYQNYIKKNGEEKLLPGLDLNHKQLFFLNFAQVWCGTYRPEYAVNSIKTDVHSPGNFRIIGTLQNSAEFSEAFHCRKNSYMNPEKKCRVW

The assay has as its target T1, human NEP (Homo sapiens, UniProt P08473).
T1 construct: purchased R&D Systems, Minneapolis, Minn; 1182-ZN
The experiment in a line: In vitro enzyme inhibition assay at human NEP (fluorogenic peptide substrate). The settings on record: pKi values at human NEP (recombinant), given as ranges. It is filed as biochemical. As to the method: The inhibitory activities of compounds at human and rat neprilysin (EC 3.4.24.11; NEP) and human angiotensin converting enzyme (ACE) were determined using in vitro assays as described below.
Recombinant human NEP and recombinant human ACE were obtained commercially (R&D Systems, Minneapolis, Minn., catalog numbers 1182-ZN and 929-ZN, respectively). The fluorogenic peptide substrate Mca-D-Arg-Arg-Leu-Dap-(Dnp)-OH (Medeiros et al. (1997) Braz. J. Med. Biol. Res. 30:1157-62; Anaspec, San Jose, Calif.) and Abz-Phe-Arg-Lys(Dnp)-Pro-OH (Araujo et al. (2000) Biochemistry 39:8519-8525; Bachem, Torrance, Calif.) were used in the NEP and ACE assays respectively.
The assays were performed in 384-well white opaque plates at 37° C. using the fluorogenic peptide substrates at a concentration of 10 μM in Assay Buffer (NEP: 50 mM HEPES, pH 7.5, 100 mM NaCl, 0.01% polyethylene glycol sorbitan monolaurate (Tween-20), […]; ACE: 50 mM HEPES, pH 7.5, 100 mM NaCl, 0.01% Tween-20, 1 μM ZnSO4).
Test compounds were assayed over the range of concentrations from 10 μM to 20 pM. Test compounds were added to the enzymes and incubated for 30 minute at 37° C. prior to initiating the reaction by the addition of substrate. Reactions were terminated after 20 minutes of incubation at 37° C. by the addition of glacial acetic acid to a final concentration of 3.6% (v/v).
Plates were read on a fluorometer with excitation and emission wavelengths set to 320 nm and 405 nm, respectively. Inhibition constants were obtained by nonlinear regression of the data using the equation (GraphPad Software, Inc., San Diego, Calif.): ν=ν0/[1+(I/K′)] where ν is the reaction rate, ν0 is the uninhibited reaction rate, I is the inhibitor concentration and K′ is the apparent inhibition constant.
Compounds of the invention were tested in this assay and found to have pKi values at human NEP as follows.
One may read the Ki as the equilibrium dissociation constant of an inhibitor or competing ligand from its target. With `CC(C)(C[C@@H](Cc1ccc(-c2ccccc2)cc1)NC(=O)c1cc(C(=O)N2CCC(O)C2)n[nH]1)C(=O)O` (stereo partly drawn) [Example 9-9, (R)-5-Biphenyl-4-yl-4-{[5-(3-hydroxy-pyrrolidine-1-carbonyl)-2H-pyrazole-3-carbonyl]-amino}-2,2-dimethyl-pentanoic acid], the Ki was 0.0126 to 0.1 µM. In the case of `CC(C)(C[C@@H](Cc1ccc(-c2ccccc2)cc1)NC(=O)c1cc(C(=O)N2CCC(O)CC2)n[nH]1)C(=O)O` [Example 9-10, (R)-5-Biphenyl-4-yl-4-{[5-(4-hydroxy-piperidine-1-carbonyl)-2H-pyrazole-3-carbonyl]-amino}-2,2-dimethyl-pentanoic acid], the Ki was 0.0126 to 0.1 µM. For the compound `CC(C)(C[C@@H](Cc1ccc(-c2ccccc2)cc1)NC(=O)c1cc(C(=O)N2CCC[C@H]2C(=O)O)n[nH]1)C(=O)O` [Example 9-11, (S)-1-[5-((R)-1-Biphenyl-4-ylmethyl-3-carboxy-3-methyl-butylcarbamoyl)-1H-pyrazole-3-carbonyl]-pyrrolidine-2-carboxylic acid], the inhibition constant Ki is 0.00126 to 0.01 µM. In the case of `CNC(=O)c1cc(C(=O)N[C@H](Cc2ccc(-c3ccccc3)cc2)CC(C)(C)C(=O)O)[nH]n1` [Example 9-12, (R)-5-Biphenyl-4-yl-2,2-dimethyl-4-[(5-methylcarbamoyl-2H-pyrazole-3-carbonyl)-amino]-pentanoic acid], the inhibition constant (Ki) is 0.0126 to 0.1 µM. As for `CN(C)C(=O)c1cc(C(=O)N[C@H](Cc2ccc(-c3ccccc3)cc2)CC(C)(C)C(=O)O)[nH]n1` [Example 9-13, (R)-5-Biphenyl-4-yl-4-[(5-dimethylcarbamoyl-2H-pyrazole-3-carbonyl)-amino]-2,2-dimethyl-pentanoic acid], the inhibition constant (Ki) was 0.0126 to 0.1 µM. Consider `CC(C)CN(C)C(=O)c1cc(C(=O)N[C@H](Cc2ccc(-c3ccccc3)cc2)CC(C)(C)C(=O)O)[nH]n1` [Example 9-14, (R)-5-Biphenyl-4-yl-4-{[5-(isobutyl-methyl-carbamoyl)-2H-pyrazole-3-carbonyl]-amino}-2,2-dimethyl-pentanoic acid], for which the inhibition constant Ki is 0.0126 to 0.1 µM. Then `COCCN(C)C(=O)c1cc(C(=O)N[C@H](Cc2ccc(-c3ccccc3)cc2)CC(C)(C)C(=O)O)[nH]n1` [Example 9-15, (R)-5-Biphenyl-4-yl-4-({5-[(2-methoxy-ethyl)-methyl-carbamoyl]-2H-pyrazole-3-carbonyl}-amino)-2,2-dimethyl-pentanoic acid], with 0.00126 to 0.01 µM. Then `CC(C)(C[C@@H](Cc1ccc(-c2ccccc2)cc1)NC(=O)c1cc(C(=O)NCCc2c[nH]cn2)n[nH]1)C(=O)O` [Example 9-17, (R)-5-Biphenyl-4-yl-4-({5-[2-(1H-imidazol-4-yl)-ethylcarbamoyl]-2H-pyrazole-3-carbonyl}-amino)-2,2-dimethyl-pentanoic acid], with 0.0126 to 0.1 µM; and `CC(=O)c1cc(C(=O)N[C@H](Cc2ccc(-c3ccccc3)cc2)CC(C)(C)C(=O)O)[nH]n1` [Example 9-18, (R)-4-[(5-Acetyl-2H-pyrazole-3-carbonyl)-amino]-5-biphenyl-4-yl-2,2-dimethyl-pentanoic acid], with 0.0126 to 0.1 µM. Take `O=C(N[C@H](Cc1ccc(-c2ccccc2)cc1)CC1(C(=O)O)CC1)c1cc(C(=O)O)[nH]n1` [Example 10A, 5-[(R)-2-Biphenyl-4-yl-1-(1-carboxy-cyclopropylmethyl)-ethylcarbamoyl]-2H-pyrazole-3-carboxylic acid]: the Ki was not above 0.001 µM. As to `O=C(N[C@H](Cc1ccc(-c2ccccc2)cc1)CC1(C(=O)O)CC1)c1cnn[nH]1` [Example 11-1, 1-{(R)-3-Biphenyl-4-yl-2-[(3H-[1,2,3]triazole-4-carbonyl)-amino]-propyl}-cyclopropanecarboxylic acid], the Ki is 0.0126 to 0.1 µM. Take `O=C(N[C@H](Cc1ccc(-c2ccccc2)cc1)CC1(C(=O)O)CC1)c1nc(O)n[nH]1` [Example 11-3, 1-{(R)-3-Biphenyl-4-yl-2-[(5-hydroxy-2H-[1,2,4]triazole-3-carbonyl)-amino]-propyl}-cyclopropanecarboxylic acid]: the inhibition constant Ki was 0.00126 to 0.01 µM. Take `O=C(N[C@H](Cc1ccc(-c2ccccc2)cc1)CC1(C(=O)O)CC1)c1cc(O)no1` [Example 11-5, 1-{(R)-3-Biphenyl-4-yl-2-[(3-hydroxy-isoxazole-5-carbonyl)-amino]-propyl}-cyclopropanecarboxylic acid]: the inhibition constant (Ki) is not above 0.001 µM. As for `O=C(N[C@H](Cc1ccc(-c2ccccc2)cc1)CC1(C(=O)O)CC1)c1cnc(O)nc1` [Example 11-8, 1-{(R)-3-Biphenyl-4-yl-2-[(2-hydroxy-pyrimidine-5-carbonyl)-amino]-propyl}-cyclopropanecarboxylic acid], the inhibition constant Ki was 0.00126 to 0.01 µM. Then `O=C(N[C@H](Cc1ccc(-c2ccccc2)cc1)CC1(C(=O)O)CC1)c1cc(O)n[nH]1` [Example 11-10, 1-{(R)-3-Biphenyl-4-yl-2-[(5-hydroxy-2H-pyrazole-3-carbonyl)-amino]-propyl}-cyclopropanecarboxylic acid], with 0.0126 to 0.1 µM.
